Measurements from PMC11003488 (Journal of Enzyme Inhibition and Medicinal Chemistry, 2023).

Assays:
HL-60(TB) = assay: cells; assay type: cell-based; conditions: Homo sapiens; for GI50: HL-60; for inhibition at 10 µM: HL-60, read-out: percent growth inhibition
RPMI-8226 = assay: NCI-60 SRB growth inhibition, one-dose and five-dose; assay type: cell-based; conditions: Homo sapiens; for GI50: RPMI-8226; for inhibition at 10 µM: RPMI-8226, read-out: percent growth inhibition
HOP-62 = assay: as above; assay type: cell-based; conditions: Homo sapiens; for GI50: HOP-62; for inhibition at 10 µM: HOP-62, read-out: percent growth inhibition
NCI-H226 = assay: as above; assay type: cell-based; conditions: Homo sapiens; for GI50: NCI-H226; for inhibition at 10 µM: NCI-H226, read-out: percent growth inhibition
HCC-2998 = assay: as above; assay type: cell-based; conditions: Homo sapiens; for GI50: HCC 2998; for inhibition at 10 µM: HCC 2998, read-out: percent growth inhibition
HCT-116 = assay: as above; assay type: cell-based; conditions: Homo sapiens; for GI50: HCT-116, HCT-116, five-dose screening; for inhibition at 10 µM: HCT-116, read-out: percent growth inhibition
KM12 = assay: as above; assay type: cell-based; conditions: Homo sapiens; for GI50: KM12; for inhibition at 10 µM: KM12, read-out: percent growth inhibition
SF-539 = assay: as above; assay type: cell-based; conditions: Homo sapiens; for GI50: SF-539; for inhibition at 10 µM: SF-539, read-out: percent growth inhibition
MDA-MB-435 = assay: as above; assay type: cell-based; conditions: Homo sapiens; for GI50: MDA-MB-435; for inhibition at 10 µM: MDA-MB-435, read-out: percent growth inhibition
UACC-62 = assay: as above; assay type: cell-based; conditions: Homo sapiens; for GI50: UACC-62; for inhibition at 10 µM: UACC-62, read-out: percent growth inhibition
IGROV1 = assay: as above; assay type: cell-based; conditions: Homo sapiens; for GI50: IGROV-1; for inhibition at 10 µM: IGROV-1, read-out: percent growth inhibition
OVCAR-8 = assay: as above; assay type: cell-based; conditions: Homo sapiens; for inhibition at 10 µM: OVCAR-8, read-out: percent growth inhibition
ACHN = assay: as above; assay type: cell-based; conditions: Homo sapiens; for inhibition at 10 µM: read-out: percent growth inhibition
SN12C = assay: as above; assay type: cell-based; conditions: Homo sapiens; for inhibition at 10 µM: read-out: percent growth inhibition
TK-10 = assay: as above; assay type: cell-based; conditions: Homo sapiens; for GI50: TK-10; for inhibition at 10 µM: TK-10, read-out: percent growth inhibition
UO-31 = assay: as above; assay type: cell-based; conditions: Homo sapiens; for GI50: UO-31
PC-3 = assay: as above; assay type: cell-based; conditions: Homo sapiens; for GI50: PC-3; for inhibition at 10 µM: PC-3, read-out: percent growth inhibition
MDA-MB-231/ATCC = assay: as above; assay type: cell-based; conditions: Homo sapiens; for GI50: MDA-MB-231
HS 578 T = assay: as above; assay type: cell-based; conditions: Homo sapiens; for inhibition at 10 µM: read-out: percent growth inhibition
Leukaemia cell lines = assay: NCI-60 SRB growth inhibition, subpanel; assay type: cell-based, human; conditions: Homo sapiens, read-out: GI50 MG-MID
NSCLC cell lines = assay: NCI-60 SRB growth inhibition, subpanel; assay type: cell-based, human; conditions: Homo sapiens, read-out: GI50 MG-MID
Colon cancer cell lines = assay: NCI-60 SRB growth inhibition, subpanel; assay type: cell-based, human; conditions: Homo sapiens, read-out: GI50 MG-MID
CNS cancer cell lines = assay: NCI-60 SRB growth inhibition, subpanel; assay type: cell-based, human; conditions: Homo sapiens, read-out: GI50 MG-MID
Melanoma cell lines = assay: NCI-60 SRB growth inhibition, subpanel; assay type: cell-based, human; conditions: Homo sapiens, read-out: GI50 MG-MID
[1] = system: Ovarian cancer cell lines; assay: NCI-60 SRB growth inhibition, subpanel; assay type: cell-based, human; conditions: Homo sapiens, read-out: GI50 MG-MID
Renal cancer cell lines = assay: NCI-60 SRB growth inhibition, subpanel; assay type: cell-based, human; conditions: Homo sapiens, read-out: GI50 MG-MID
[2] = system: Prostate cancer cell lines; assay: NCI-60 SRB growth inhibition, subpanel; assay type: cell-based, human; conditions: Homo sapiens, read-out: GI50 MG-MID
Breast cancer cell lines = assay: NCI-60 SRB growth inhibition, subpanel; assay type: cell-based, human; conditions: Homo sapiens, read-out: GI50 MG-MID
[3] = Cytotoxicity towards normal fibroblasts, safety index; assay type: cell-based, human; conditions: human, WI-38 normal fibroblast cells
[4] = system: WI-38 normal human fibroblast cells; assay: as above; assay type: cell-based; conditions: WI-38 versus cancer cell lines
Human VEGFR-2 = Human VEGFR-2 (Homo sapiens, UniProt P35968); assay: VEGFR-2 inhibition assay; assay type: biochemical
Chain of Human VEGFR-2 (P35968 20-1356): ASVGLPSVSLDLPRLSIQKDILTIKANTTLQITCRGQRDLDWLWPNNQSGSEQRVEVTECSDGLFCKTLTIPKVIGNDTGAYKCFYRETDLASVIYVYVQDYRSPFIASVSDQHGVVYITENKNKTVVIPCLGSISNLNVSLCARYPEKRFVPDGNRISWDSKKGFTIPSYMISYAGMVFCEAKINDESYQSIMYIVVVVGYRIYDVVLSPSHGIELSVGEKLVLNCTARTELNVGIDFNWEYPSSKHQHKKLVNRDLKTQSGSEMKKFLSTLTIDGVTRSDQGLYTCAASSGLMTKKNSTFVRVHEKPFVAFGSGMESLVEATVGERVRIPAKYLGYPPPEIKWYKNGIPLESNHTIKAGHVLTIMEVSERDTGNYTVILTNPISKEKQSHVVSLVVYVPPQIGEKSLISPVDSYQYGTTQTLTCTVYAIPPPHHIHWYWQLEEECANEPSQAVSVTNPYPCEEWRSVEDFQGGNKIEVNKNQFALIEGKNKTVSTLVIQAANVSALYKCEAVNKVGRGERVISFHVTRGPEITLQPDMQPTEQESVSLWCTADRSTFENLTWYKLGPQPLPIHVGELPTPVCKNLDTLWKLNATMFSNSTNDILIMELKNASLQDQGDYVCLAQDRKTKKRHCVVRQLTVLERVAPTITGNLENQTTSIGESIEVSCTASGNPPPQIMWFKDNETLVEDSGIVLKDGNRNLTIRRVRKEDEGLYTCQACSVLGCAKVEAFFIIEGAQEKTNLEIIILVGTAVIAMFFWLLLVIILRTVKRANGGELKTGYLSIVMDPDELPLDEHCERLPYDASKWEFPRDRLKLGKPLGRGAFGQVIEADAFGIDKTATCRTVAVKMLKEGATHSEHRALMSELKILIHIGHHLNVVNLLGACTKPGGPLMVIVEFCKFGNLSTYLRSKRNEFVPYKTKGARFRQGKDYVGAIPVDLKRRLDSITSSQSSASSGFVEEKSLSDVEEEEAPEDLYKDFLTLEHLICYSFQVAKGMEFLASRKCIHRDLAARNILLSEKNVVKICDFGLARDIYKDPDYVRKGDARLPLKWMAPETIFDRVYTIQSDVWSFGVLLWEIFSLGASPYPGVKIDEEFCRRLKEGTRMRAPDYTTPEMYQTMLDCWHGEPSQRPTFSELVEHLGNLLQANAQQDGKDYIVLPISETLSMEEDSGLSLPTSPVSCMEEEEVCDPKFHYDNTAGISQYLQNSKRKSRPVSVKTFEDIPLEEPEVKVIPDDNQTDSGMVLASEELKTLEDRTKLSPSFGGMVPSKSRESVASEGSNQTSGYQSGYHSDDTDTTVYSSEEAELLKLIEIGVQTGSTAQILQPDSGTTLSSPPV

In the case of `CC(=O)Nc1ccc(/C=C/C(=O)c2cccc(NCc3ccc(C)cc3)c2)cc1` [Compound 5f, (E)-N-(4–(3-(3-((4-methylbenzyl)amino)phenyl)-3-oxoprop-1-en-1-yl)phenyl)acetamide], the GI50 (HL-60(TB)) is reported as 3.99 µM, the inhibition at 10 µM (HL-60(TB)) is reported as 52% and the GI50 (RPMI-8226) is reported as 2.29 µM. The inhibition at 10 µM (RPMI-8226) was 105%, the GI50 (HOP-62) was 13.9 µM and the inhibition at 10 µM (HOP-62) was 13.9%. It also gave a GI50 (NCI-H226) of 13.7 µM, an inhibition at 10 µM (NCI-H226) of 21.8% and a GI50 (HCC-2998) of 13.9 µM. For the same compound, the inhibition at 10 µM (HCC-2998) was 15.2%, the GI50 (HCT-116) was 1.91 µM and the inhibition at 10 µM (HCT-116) was 179%. It also gave a GI50 (KM12) of 7.04 µM, an inhibition at 10 µM (KM12) of 136% and a GI50 (SF-539) of 9.33 µM. For the same compound, the inhibition at 10 µM (SF-539) was 153%, the GI50 (MDA-MB-435) was 6.21 µM and the inhibition at 10 µM (MDA-MB-435) was 35.7%. It also gave a GI50 (UACC-62) of 10.8 µM, an inhibition at 10 µM (UACC-62) of 48.7% and a GI50 (IGROV1) of 12.9 µM. The inhibition at 10 µM (IGROV1) was 39%, the GI50 (OVCAR-8; OVCAR-8) was 2.98 µM and the inhibition at 10 µM (OVCAR-8) was 88.1%. For the same compound, the GI50 (ACHN) was 13.2 µM, the inhibition at 10 µM (ACHN) was 65% and the GI50 (SN12C) was 7.76 µM. For the same compound, the inhibition at 10 µM (SN12C) was 88%, the GI50 (TK-10) was 13.8 µM and the inhibition at 10 µM (TK-10) was -10.1%. It also gave a GI50 (UO-31) of 6.78 µM, an inhibition at 10 µM (UO-31; UO-31, read-out: percent growth inhibition) of 50.2% and a GI50 (PC-3) of 12.7 µM. The inhibition at 10 µM (PC-3) was 67.2%, the GI50 (MDA-MB-231/ATCC) was 3.7 µM and the inhibition at 10 µM (MDA-MB-231/ATCC; MDA-MB-231, read-out: percent growth inhibition) was 89.4%. It also gave a GI50 (HS 578 T) of 15.4 µM, an inhibition at 10 µM (HS 578 T) of 47% and a GI50 (Leukaemia cell lines) of 2.73 µM. For the same compound, the GI50 (NSCLC cell lines) was 13.4 µM, the GI50 (Colon cancer cell lines) was 7.86 µM and the GI50 (CNS cancer cell lines) was 9.73 µM. For the same compound, the GI50 (Melanoma cell lines) was 10.5 µM, the GI50 [1] was 10.5 µM and the GI50 (Renal cancer cell lines) was 11.4 µM. It also gave a GI50 [2] of 10.1 µM, a GI50 (Breast cancer cell lines) of 7.03 µM and a GI50 at 48 h [3] of over 100 µM. For the same compound, the Safety index [4] was over 1 and the IC50 (Human VEGFR-2) was 0.89 ± 0.009 µM.
With `CC(=O)Nc1ccc(/C=C/C(=O)c2cccc(NCc3ccc(NC(C)=O)cc3)c2)cc1` [Compound 5g, (E)-N-(4–(3-(3-((4-acetamidobenzyl)amino)phenyl)-3-oxoprop-1-en-1-yl)phenyl) acetamide] the GI50 (HL-60(TB)) was 7.08 µM, the inhibition at 10 µM (HL-60(TB)) was 100% and the GI50 (RPMI-8226) was 3.02 µM. The inhibition at 10 µM (RPMI-8226) was 130%, the GI50 (HOP-62) was 14.5 µM and the inhibition at 10 µM (HOP-62) was 35.3%. For the same compound, the GI50 (NCI-H226) was 12.9 µM, the inhibition at 10 µM (NCI-H226) was 126% and the GI50 (HCC-2998) was 14.8 µM. It also gave an inhibition at 10 µM (HCC-2998) of 137%, a GI50 (HCT-116) of 1.95 µM and an inhibition at 10 µM (HCT-116) of 190%. It also gave a GI50 (KM12) of 13.4 µM, an inhibition at 10 µM (KM12) of 163% and a GI50 (SF-539) of 12.2 µM. It also gave an inhibition at 10 µM (SF-539) of 167%, a GI50 (MDA-MB-435) of 10.3 µM and an inhibition at 10 µM (MDA-MB-435) of 39%. It also gave a GI50 (UACC-62) of 8.03 µM, an inhibition at 10 µM (UACC-62) of 74.2% and a GI50 (IGROV1) of 5.59 µM. The inhibition at 10 µM (IGROV1) was 56.3%, the inhibition at 10 µM (OVCAR-8) was 129% and the GI50 (ACHN) was 5.1 µM. It also gave an inhibition at 10 µM (ACHN) of 105%, a GI50 (SN12C) of 4.82 µM and an inhibition at 10 µM (SN12C) of 87%. It also gave a GI50 (TK-10) of 13.8 µM, an inhibition at 10 µM (TK-10) of 33.2% and a GI50 (UO-31) of 10.8 µM. It also gave a GI50 (PC-3) of 11.6 µM, an inhibition at 10 µM (PC-3) of 54.8% and a GI50 (MDA-MB-231/ATCC) of 4.56 µM. The GI50 (HS 578 T) was 10.6 µM, the inhibition at 10 µM (HS 578 T) was 32% and the GI50 (Leukaemia cell lines) was 3.87 µM. For the same compound, the GI50 (NSCLC cell lines) was 12.2 µM, the GI50 (Colon cancer cell lines) was 8.13 µM and the GI50 (CNS cancer cell lines) was 9.95 µM. For the same compound, the GI50 (Melanoma cell lines) was 9.64 µM, the GI50 [1] was 11.8 µM and the GI50 (Renal cancer cell lines) was 10.7 µM. For the same compound, the GI50 [2] was 11.7 µM, the GI50 (Breast cancer cell lines) was 7.7 µM and the GI50 at 48 h [3] was over 100 µM. The Safety index [4] was over 1 and the IC50 (Human VEGFR-2) was 0.47 ± 0.013 µM.
